Each compound was assayed on HMPV clinical isolate A2 strain TN 94-49 (assay: HMPV antiviral assay, Method 1 (LLC-MK2 cells, ATP-Lite)). Details: human metapneumovirus, hMPV A2 TN/94-49, LLC-MK2 cells.
Assay type: cell-based
Protocol: In vitro HMPV antiviral activity was evaluated using the clinical isolate A2 strain TN 94-49 (obtained from Dr. John Williams, Vanderbilt University, Tennessee) and LLC-MK2 cells (ATCC #CCL-7), an immortalized kidney epithelial cell line from Macaca mulatta. Compounds were resuspended in dimethyl sulfoxide (DMSO) at 10 mM, serially diluted and added to a 384-well source plate. Subsequently, the compounds were diluted and transferred onto 384-well assay plates using the Echo-650 automated liquid handling system (Beckman Coulter, Indiana). The test compounds were assessed in duplicate at a top concentration of 2 μM followed by 2.5-fold serial dilutions to give a total of 10 concentration points. DMSO control wells were also included on the assay plates and were either infected or not, acting as positive and negative controls. A2 TN 94-49 virus infections were performed in-suspension with LLC-MK2 cells. The cells were washed twice with PBS and removed from the cell-culture flask with 0.25% trypsin-EDTA (Thermo Fisher Scientific, MA). The trypsin-EDTA was inactivated by resuspending in 2% fetal bovine serum (FBS) and OptiMEM (ThermoFisher Scientific, MA) containing 1% penicillin-streptomycin. Cells were pelleted by centrifuging for 5 minutes at 800 rpm, the supernatant was removed, and cells were re-suspended and washed in PBS plus 100 μg/mL CaCl2). This step was performed twice. Cells were then re-suspended in serum-free (SF)-OptiMEM containing 4 μg/mL TPCK-Trypsin (Sigma Aldrich, MO), 1% penicillin-streptomycin (ThermoFisher Scientific, MA) and 100 μg/mL CaCl2). Cells were counted and seeded at a density of 5,000 cells/well, 12.5 μL/well. Virus infections were done at a multiplicity of infection (MOI) of 0.005 with 12.5 μL added per well. Virus infections were performed in infection media which contained SF-OptiMEM, 100 μg/mL CaCl2) and 1% penicillin-streptomycin. HMPV viral stocks are suspended in infection media+5% glycerol, thus an equal volume of infection media+5% glycerol was added to uninfected wells to equalize the final % glycerol across all wells of the assay plate. The final concentration of TPCK-trypsin was 2 μg/mL. The assay plates were incubated at 37° C., 5% CO2 for 7 days. After 7 days incubation, 12.5 μL of ATP-Lite (PerkinElmer, MA) was added to each well and the raw luminescence values were determined using the Envision 2104 (Perkin Elmer, MA). The average of the raw luminescence values for the cells and virus only positive control wells was subtracted from all conditions tested and the percent cell health was determined by dividing these values by the average of the cells only negative control wells. EC50 values were then calculated by non-linear regression using a four-parameter curve logistic equation. The curve fit model employed was XLFit Dose Response One Site Model 200: y=(A+(B/(1+((x/C)^D)))), where A is the minimum y value, B is the maximum y value, C is the log EC50 value, and D is the slope factor.

SMILES	EC50
COc1cc(C(=O)NC[C@](O)(c2cc3c(c(-c4cc(Cl)c(F)cc4F)n2)OC[C@]3(C)C(N)=O)c2ccccc2F)cc2cn(C3CC3)nc12 [Example 136]	< 500 nM
COc1cc(C(=O)NC[C@](O)(c2cc3c(c(-c4ccc(C)c(C(F)(F)F)c4)n2)OC[C@]3(C)C(N)=O)C2CC2)cc2cn(C3CC3)nc12 [Example 56]	> 500 nM
COc1cc(C(=O)NC[C@@](O)(c2ccccc2)c2cc3c(c(-c4ccc5c(c4Cl)OC(F)(F)O5)n2)OC[C@]3(C)C(N)=O)cc2cn(C3(F)CC3)nc12 [Example 255]	< 500 nM
COc1cc(C(=O)NC[C@](O)(c2cc3c(c(-c4cc(Cl)cc(Cl)c4Cl)n2)OC[C@]3(C)C(N)=O)C2CC2)cc2cn(C3CC3)nc12 [Example 61]	< 500 nM
[2H]C([2H])([2H])c1nc2c(OC)cc(C(=O)NC[C@@](O)(c3ccccc3)c3cc4c(c(-c5cc(Cl)c(F)cc5F)n3)OC[C@]4(C)C(N)=O)cc2s1 [Example 155]	< 500 nM
C[C@]1(C(N)=O)COc2c1cc([C@@](O)(CNC(=O)c1cc(Cl)c3nn(C4CC4)cc3c1)C1CC1)nc2-c1ccc2c(c1Cl)OC(F)(F)O2 [Example 35]	< 500 nM
COc1cc(C(=O)NC[C@@](O)(c2ccccc2)c2cc3c(c(-c4cc(Cl)c(F)cc4F)n2)OC[C@]3(C)C(N)=O)cc2cn(C(F)F)nc12 [Example 156]	< 500 nM
COc1cc(C(=O)NC[C@@](O)(c2cccc(F)c2)c2cc3c(c(-c4ccc(F)c(Cl)c4Cl)n2)OC[C@]3(C)C(N)=O)cc2oc(C)nc12 [Example 279]	< 500 nM
COc1cc(C(=O)NCC(O)(c2cc3c(c(-c4cc(Cl)c(F)cc4F)n2)OC[C@]3(C)C(N)=O)c2cc3ccccc3s2)cc2cn(C3CC3)nc12 (stereo partly shown) [Example 469]	> 500 nM
COc1cc(C(=O)NC[C@@](O)(c2ccccc2)c2cc3c(c(-c4cc(C(F)(F)F)ccc4F)n2)OC[C@]3(C)C(N)=O)cc2cn(C(F)F)nc12 [Example 148]	< 500 nM
COc1cc(C(=O)NC[C@@](O)(c2cc3c(c(-c4cc(Cl)c(F)cc4F)n2)OC[C@]3(C)C(N)=O)c2cc(C)cs2)cc2cn(C3CC3)nc12 [Example 466]	> 500 nM
[2H]C([2H])([2H])c1nc2c(OC)cc(C(=O)NC[C@@](O)(c3ccccc3)c3cc4c(c(-c5ccc(F)c(Cl)c5Cl)n3)OC[C@]4(C)C(N)=O)cc2s1 [Example 273]	< 500 nM
Cc1nc2ccc(C(=O)NC[C@@](O)(c3ccccc3)c3cc4c(c(-c5cc(Cl)c(F)cc5F)n3)OC[C@]4(C)C(N)=O)cc2o1 [Example 86]	< 500 nM
COc1ccc([C@](O)(CNC(=O)c2cc(OC)c3nn(C(F)F)cc3c2)c2cc3c(c(-c4cc(Cl)c(F)cc4F)n2)OC[C@]3(C)C(N)=O)cc1 [Example 167]	< 500 nM
COc1cc(C(=O)NC[C@](O)(c2cc3c(c(-c4ccc5ccsc5c4)n2)OC[C@]3(C)C(N)=O)C2CC2)cc2cn(C3CC3)nc12 [Example 48]	> 500 nM
COc1cc(C(=O)NC[C@@](O)(c2ccc(F)cc2)c2cc3c(c(-c4ccc(F)c(Cl)c4Cl)n2)OC[C@]3(C)C(N)=O)cc2cc(C3CC3)nn12 [Example 45]	< 500 nM
C[C@]1(C(N)=O)COc2c1cc([C@@](O)(CNC(=O)c1ccc3nc(N)sc3c1)c1ccccc1)nc2-c1ccc2c(c1Cl)OC(F)(F)O2 [Example 256]	< 500 nM
COc1cc(C(=O)NC[C@](O)(c2cc3c(c(-c4cc(F)c(F)cc4F)n2)OC[C@]3(C)C(N)=O)C2CC2)cc2cc(C(F)(F)F)cnc12 [Example 46]	> 500 nM
COc1cc(C(=O)NC[C@](O)(c2cc3c(c(-c4ccc(Cl)c(Cl)c4Cl)n2)OC[C@]3(C)C(N)=O)C2CC2)cc2cn(C3CC3)nc12 [Example 60]	< 500 nM
COc1cc(C(=O)NC[C@@](O)(c2ccsc2)c2cc3c(c(-c4cc(Cl)c(F)cc4F)n2)OC[C@]3(C)C(N)=O)cc2cn(C3CC3)nc12 [Example 173]	< 500 nM
COc1cc(C(=O)NC[C@](O)(c2cc3c(c(-c4cc(F)c(F)c(F)c4Cl)n2)OC[C@]3(C)C(N)=O)C(F)(F)F)cc2cn(C3CC3)nc12 [Example 59]	< 500 nM
C[C@]1(C(N)=O)COc2c1cc([C@@](O)(CNC(=O)c1cc(OC3CC3)c3nn(C4CC4)cc3c1)c1ccccc1)nc2-c1ccc2c(c1Cl)OC(F)(F)O2 [Example 252]	< 500 nM

SMILES	EC50
COc1cc(C(=O)NC[C@](O)(c2cc3c(c(-c4ccc(F)c(CO)c4F)n2)OC[C@]3(C)C(N)=O)C2CC2)cc2cn(C3CC3)nc12 [Example 72]	> 500 nM
COc1cc(C(=O)NC[C@](O)(c2cc3c(c(-c4cc(Cl)c(F)cc4F)n2)OC[C@]3(C)C(N)=O)c2cc(C)cs2)cc2cn(C3CC3)nc12 [Example 467]	< 500 nM
C[C@]1(C(N)=O)COc2c1cc([C@@](O)(CNC(=O)c1cc(OC3CC3)c3nn(C4CC4)cc3c1)C1CC1)nc2-c1cc(Cl)c(F)cc1F [Example 2]	< 500 nM
[2H]C([2H])([2H])c1cc2cc(C(=O)NC[C@](O)(c3cc4c(c(-c5cc(F)c(F)cc5F)n3)OC[C@]4(C)C(N)=O)C3CC3)cc(OC)c2nc1C([2H])([2H])[2H] [Example 28]	< 500 nM
COc1cc(C(=O)NC[C@](O)(c2cc3c(c(-c4cc(F)c(F)cc4F)n2)OC[C@]3(C)C(N)=O)C2CC(F)(F)C2)cc2cn(C3CC3)nc12 [Example 31]	< 500 nM
[2H]C([2H])([2H])c1nc2c(OC)cc(C(=O)NC[C@@](O)(c3ccccc3)c3cc4c(c(-c5ccc6c(c5)OC(F)(F)O6)n3)OC[C@]4(C)C(N)=O)cc2s1 [Example 9]	< 500 nM
C[C@]1(C(N)=O)COc2c1cc([C@@](O)(CNC(=O)c1cc(OC(F)F)c3nn(C4CC4)cc3c1)C1CC1)nc2-c1ccc(F)c(Cl)c1F [Example 40]	< 500 nM
[2H]c1nc2c(OC(F)F)cc(C(=O)NC[C@@](O)(c3ccccc3)c3cc4c(c(-c5cc(Cl)c(F)cc5F)n3)OC[C@]4(C)C(N)=O)cc2cc1C([2H])([2H])[2H] [Example 217]	< 500 nM
COc1cc(C(=O)NC[C@](O)(c2cc3c(c(-c4cc(C(F)(F)F)ccc4C)n2)OC[C@]3(C)C(N)=O)C2CC2)cc2cn(C3CC3)nc12 [Example 53]	< 500 nM
C[C@]1(C(N)=O)COc2c1cc([C@@](O)(CNC(=O)c1ccc3nc(C(F)(F)F)oc3c1)c1ccccc1)nc2-c1cc(Cl)c(F)cc1F [Example 82]	> 500 nM
COc1cc(C(=O)NC[C@](O)(c2cc3c(c(-c4cccc(SC(F)(F)F)c4)n2)OC[C@]3(C)C(N)=O)C2CC2)cc2cn(C3CC3)nc12 [Example 36]	> 500 nM
[2H]c1nc2c(OC)cc(C(=O)NC[C@](O)(c3cc4c(c(-c5cc(F)c(F)cc5F)n3)OC[C@]4(C)C(N)=O)C3CC3)cc2cc1Br [Example 30]	< 500 nM
[2H]C([2H])([2H])c1nc2c(OC)cc(C(=O)NC[C@@](O)(c3ccc(F)cc3)c3cc4c(c(-c5ccc6c(c5Cl)OC(F)(F)O6)n3)OC[C@]4(C)C(N)=O)cc2s1 [Example 27]	< 500 nM
COc1cc(C(=O)NC[C@@](O)(c2ccsc2)c2cc3c(c(-c4cc(Cl)c(F)cc4F)n2)OC[C@]3(C)C(N)=O)cc2cn(C(F)F)nc12 [Example 174]	< 500 nM
COc1cc(C(=O)NC[C@](O)(c2cc3c(c(-c4cccc(S(F)(F)(F)(F)F)c4)n2)OC[C@]3(C)C(N)=O)C(F)(F)F)cc2cn(C3CC3)nc12 [Example 54]	> 500 nM
COc1cc(C(=O)NC[C@](O)(c2cc3c(c(-c4cc(Cl)c(C)cc4F)n2)OC[C@]3(C)C(N)=O)C2CC2)cc2cn(C3CC3)nc12 [Example 51]	> 500 nM
COc1cc(C(=O)NC[C@@](O)(c2ccsc2)c2cc3c(c(-c4cc(Cl)c(F)cc4F)n2)OC[C@]3(C)C(N)=O)cc2cn(C3(F)CC3)nc12 [Example 175]	< 500 nM
[2H]C([2H])([2H])c1nc2ccc(C(=O)NC[C@@](O)(c3ccccc3)c3cc4c(c(-c5cc(Cl)c(F)cc5F)n3)OC[C@]4(C)C(N)=O)cc2o1 [Example 87]	< 500 nM
[2H]C([2H])([2H])c1nc2c(OC)cc(C(=O)NC[C@@](O)(c3ccc(OC)cc3)c3cc4c(c(-c5cc(Cl)c(F)cc5F)n3)OC[C@]4(C)C(N)=O)cc2s1 [Example 168]	< 500 nM
COc1cc(C(=O)NC[C@](O)(c2cc3c(c(-c4cc(Cl)c(F)cc4F)n2)OC[C@]3(C)C(N)=O)c2ccccc2F)cc2cc(C3CC3)nn12 [Example 137]	< 500 nM
[2H]C([2H])([2H])c1nc2c(OC)cc(C(=O)NC[C@](O)(c3cc4c(c(-c5cc(F)c(F)cc5F)n3)OC[C@]4(C)C(N)=O)C3CC3)cc2cc1Br [Example 7]	< 500 nM

Source: patent publication US20240368174A1, “Antiviral Heterocyclic Compounds” (Enanta Pharmaceuticals, Inc., priority 2023, published 2024)
